{"source": "patent US6518423B1", "about": "“Benzopiperidine derivatives” (Eisai Co., Ltd., priority 1996, dated 2003)"}
{"smiles": "O=C(O)c1ccc(-c2cn(Cc3ccc4c(c3)Nc3nccnc3S4)cn2)cc1", "melting point": "264 to 266 °C"}
{"smiles": "CC/C(=C\\c1ncn(Cc2ccc3c(c2)Nc2nccnc2S3)c1C)C(=O)O", "melting point": "> 288 °C (dec.)"}
{"smiles": "CS(=O)(=O)NCCc1cn(Cc2ccc3c(c2)Nc2nccnc2S3)cn1", "melting point": "173 to 176 °C"}
{"smiles": "CS(=O)(=O)Nc1ccc(-c2cn(Cc3ccc4c(c3)Nc3nccnc3S4)cn2)cc1", "melting point": "253 to 255 °C"}
{"smiles": "CC(=O)Nc1ccc(-c2cn(Cc3ccc4c(c3)Nc3nccnc3S4)cn2)cc1", "melting point": "261 to 263 °C"}
{"smiles": "Cc1c(C(C)(C)O)ncn1Cc1ccc2c(c1)Nc1nccnc1S2", "melting point": "264 to 266 °C"}
{"smiles": "c1cnn(Cc2ccc3c(c2)Nc2nccnc2S3)c1", "melting point": "211 to 212 °C"}
{"smiles": "C/C(=C\\C1C2(C)CCCC1(C)CN(Cc1ccc3c(c1)Nc1nccnc1S3)C2)C(=O)O", "note": "(stereo not shown)", "melting point": "249 to 251 °C"}
{"smiles": "OC(c1ccc2c(c1)Nc1nccnc1S2)c1nccs1", "note": "(stereo not shown)", "melting point": "110 to 114 °C"}
{"smiles": "OC(C#Cc1ccccc1)c1ccc2c(c1)Nc1nccnc1S2", "note": "(stereo not shown)", "melting point": "192 to 194 °C"}
{"smiles": "CCCCC#CC(O)c1ccc2c(c1)Nc1nccnc1S2", "note": "(stereo not shown)", "melting point": "116 to 118 °C"}
{"smiles": "CN(CCCCCC(=O)O)Cc1ccc2c(c1)Nc1nccnc1S2", "melting point": "191 to 193 °C"}
{"smiles": "O=C(Nc1ccccc1)c1ccc2c(c1)Nc1nccnc1S2", "melting point": "281 to 282 °C"}
{"smiles": "CC(CO)C1C2CCCC1CN(Cc1ccc3c(c1)Nc1nccnc1S3)C2", "note": "(stereo not shown)", "melting point": "88 to 92 °C"}
{"smiles": "Cc1ncnc2c1ncn2Cc1ccc2c(c1)Nc1nccnc1S2", "melting point": "276 to 278 °C"}
{"smiles": "Cc1nc2c(nc(C)n2Cc2ccc3c(c2)Nc2nccnc2S3)c(=O)[nH]1", "melting point": "206 to 211 °C"}
{"smiles": "C[C@@H]1CN(c2ncnc3c2ncn3Cc2ccc3c(c2)Nc2nccnc2S3)C[C@H](C)O1", "melting point": "227 to 229 °C"}
{"smiles": "CN1CCN(c2ncnc3c2ncn3Cc2ccc3c(c2)Nc2nccnc2S3)CC1", "melting point": "197 to 202 °C"}
{"smiles": "N#Cc1ccc2c(c1)Nc1nccnc1S2", "melting point": "263 to 264 °C"}
{"smiles": "C#CC/N=C(\\N)Cc1ccc2c(c1)Nc1nccnc1S2.Cl", "melting point": "222 to 223 °C"}
{"smiles": "NC(Cc1ccc2c(c1)Nc1nccnc1S2)=NO", "melting point": "252 to 254 °C"}
{"smiles": "CN(C)S(=O)(=O)NC1CN=C(Cc2ccc3c(c2)Nc2nccnc2S3)NC1", "note": "(stereo not shown)", "melting point": "251 to 254 °C"}
{"smiles": "CS(=O)(=O)/N=C/N1CCN(C(=N)Cc2ccc3c(c2)Nc2nccnc2S3)CC1.Cl", "melting point": "215 to 218 °C"}
{"smiles": "CN(C)C(Cc1ccc2c(c1)Nc1nccnc1S2)=NC#N", "melting point": "247 to 249 °C (dec.)"}
{"smiles": "N#CN=C(Cc1ccc2c(c1)Nc1nccnc1S2)NCCCn1ccnc1", "melting point": "205 to 208 °C"}
{"smiles": "CC(=NC#N)NCc1ccc2c(c1)Nc1nccnc1S2", "melting point": "275 to 277 °C"}
{"smiles": "CS(=O)(=O)/N=C(\\N)NCc1ccc2c(c1)Nc1nccnc1S2", "melting point": "244 to 245 °C"}
{"smiles": "OCCCCC1CCN(Cc2ccc3c(c2)Nc2nccnc2S3)CC1", "melting point": "132 to 135 °C"}
{"smiles": "O=C1C=CN(Cc2ccc3c(c2)Nc2nccnc2S3)CC1", "melting point": "233 to 235 °C"}
{"smiles": "NC(=O)C1CCCCN1Cc1ccc2c(c1)Nc1nccnc1S2", "note": "(stereo not shown)", "melting point": "209 to 211 °C"}
{"smiles": "CS(=O)(=O)/N=C/NC1CCN(Cc2ccc3c(c2)Nc2nccnc2S3)CC1", "melting point": "119 to 122 °C"}
{"smiles": "CS(=O)(=O)NC1CCN(Cc2ccc3c(c2)Nc2nccnc2O3)CC1", "melting point": "241 to 243 °C"}
{"smiles": "O=S(=O)(NC1CCN(Cc2ccc3c(c2)Nc2nccnc2S3)CC1)C(F)(F)F", "melting point": "199 to 201 °C"}
{"smiles": "C1=NCCCN1Cc1ccc2c(c1)Nc1nccnc1S2.Cl", "melting point": "238 °C (dec.)"}
{"smiles": "N#CN=CN1CCN(Cc2ccc3c(c2)Nc2nccnc2S3)CC1", "melting point": "238 to 241 °C (dec.)"}
{"smiles": "O=C1CCN(Cc2ccc3c(c2)Nc2nccnc2S3)CC1", "melting point": "186 to 188 °C"}
{"smiles": "c1ccc2c(c1)CCCN2Cc1ccc2c(c1)Nc1nccnc1S2", "melting point": "208 to 210 °C"}
{"smiles": "N=C(N)N1CCN(Cc2ccc3c(c2)Nc2nccnc2S3)CC1", "melting point": "265 to 271 °C (dec.)"}
{"smiles": "O=C(O)CCCN1CCC(NCc2ccc3c(c2)Nc2nccnc2S3)CC1", "melting point": "121 to 124 °C"}
{"smiles": "CC(CCC1CCN(Cc2ccc3c(c2)Nc2ncccc2S3)CC1)C(=O)O", "note": "(stereo not shown)", "melting point": "113 to 115 °C"}
{"smiles": "CC(CCC1CCN(Cc2ccc3c(c2)Nc2nccnc2O3)CC1)C(=O)O", "note": "(stereo not shown)", "melting point": "238 to 240 °C"}
{"smiles": "O=C(O)C1CCN(Cc2ccc3c(c2)Nc2nccnc2O3)CC1", "melting point": "242 to 244 °C"}
{"smiles": "COc1ccc(C2CCN(Cc3ccc4c(c3)Nc3nccnc3S4)CC2)cc1CC(=O)O", "melting point": "174 to 176 °C"}
{"smiles": "O=C(O)CNS(=O)(=O)NC1CCN(Cc2ccc3c(c2)Nc2nccnc2S3)CC1", "melting point": "195 to 196 °C"}
{"smiles": "O=C(O)C=C1CC2(CCN(Cc3ccc4c(c3)Nc3nccnc3S4)CC2)C1", "melting point": "238 to 241 °C"}
{"smiles": "O=C(O)C1CC2(CCN(Cc3ccc4c(c3)Nc3nccnc3S4)CC2)O1", "note": "(stereo not shown)", "melting point": "178 to 180 °C"}
{"smiles": "O=C(O)COCC1CCN(Cc2ccc3c(c2)Nc2nccnc2S3)CC1", "melting point": "146 to 148 °C"}
{"smiles": "O=C(O)C(F)C1CCN(Cc2ccc3c(c2)Nc2nccnc2S3)CC1", "note": "(stereo not shown)", "melting point": "163 °C (dec.)"}
{"smiles": "COCN1c2cc(CCl)ccc2Sc2nccnc21", "melting point": "125 to 126 °C"}
{"smiles": "O=C(O)CC1CCC2(CC1)CN(Cc1ccc3c(c1)Nc1nccnc1S3)C2", "melting point": "145 °C (dec.)"}
{"smiles": "O=C(O)C1CCC2(CC1)CCN(Cc1ccc3c(c1)Nc1nccnc1S3)C2", "note": "(stereo not shown)", "melting point": "146 °C (dec.)"}
{"smiles": "O=C(O)CSC1CCN(Cc2ccc3c(c2)Nc2nccnc2S3)CC1", "melting point": "148 to 152 °C"}
{"smiles": "CC(C)(CCC1CCN(Cc2ccc3c(c2)Nc2nccnc2S3)CC1)C(=O)O", "melting point": "180 to 185 °C"}
{"smiles": "O=C(O)C(O)C1CCN(Cc2ccc3c(c2)Nc2nccnc2S3)CC1", "note": "(stereo not shown)", "melting point": "98 to 99 °C"}
{"smiles": "O=C(O)C1=CCCN(Cc2ccc3c(c2)Nc2nccnc2S3)C1", "melting point": "178 to 180 °C"}
{"smiles": "CC(CC(=O)O)C1CCN(Cc2ccc3c(c2)Nc2nccnc2S3)CC1", "note": "(stereo not shown)", "melting point": "218 to 220 °C"}
{"smiles": "O=C(O)C1(c2ccc(O)cc2)CCN(Cc2ccc3c(c2)Nc2nccnc2S3)CC1", "melting point": "260 to 262 °C"}
{"smiles": "CC(C)(O)C(=O)CC(SCC(=O)O)C1CCN(Cc2ccc3c(c2)Nc2nccnc2S3)CC1", "note": "(stereo not shown)", "melting point": "130 to 132 °C"}
{"smiles": "C=CCN1c2ccccc2Nc2nccnc21", "melting point": "173 to 175 °C"}
{"smiles": "CC(C)(C)OC(=O)CN1c2ccccc2Nc2nccnc21", "melting point": "199 to 201 °C"}
{"smiles": "c1ccc(CN2c3ccccc3Nc3nccnc32)cc1", "melting point": "194 to 196 °C"}
{"smiles": "CN1c2ccc(I)cc2Nc2nccnc21", "melting point": "> 275 °C"}
{"smiles": "O=C(O)CN1c2ccccc2Nc2nccnc21", "melting point": "210 to 212 °C"}
{"smiles": "CN1c2cc(O)ccc2Nc2nccnc21", "melting point": "> 275 °C"}
{"smiles": "CCCN1c2ccccc2Nc2nccnc21", "melting point": "190 to 192 °C"}
{"smiles": "CCOC(=O)CC(=O)c1ccc2c(c1)Nc1nccnc1N2C", "melting point": "88 to 89 °C"}
{"smiles": "Cc1cc(NCc2ccc3c(c2)Nc2nccnc2S3)cc(C)n1", "melting point": "230 to 235 °C"}
{"smiles": "CC(C)Oc1ccc(NCc2ccc3c(c2)Nc2nccnc2S3)cn1", "melting point": "145 to 148 °C"}
{"smiles": "O=C(O)COCCC1C2CCCC1CN(Cc1ccc3c(c1)Nc1nccnc1S3)C2", "note": "(stereo not shown)", "melting point": "108 to 113 °C"}
{"smiles": "OCCc1ccc(NCc2ccc3c(c2)Nc2nccnc2S3)cn1", "melting point": "138 to 142 °C"}
{"smiles": "OCCSc1ccc(NCc2ccc3c(c2)Nc2nccnc2S3)cn1", "melting point": "138 to 142 °C"}
{"smiles": "Brc1ccc(NCc2ccc3c(c2)Nc2nccnc2S3)nc1", "melting point": "265 to 268 °C"}
{"smiles": "CCNC(=O)N(Cc1ccc2c(c1)Nc1nccnc1S2)c1cccnc1", "melting point": "210 to 212 °C"}
